In experiment [1] the target is T1, Oxysterols receptor LXR-beta (Homo sapiens, UniProt P55055).
T1 sequence (P55055 whole entry): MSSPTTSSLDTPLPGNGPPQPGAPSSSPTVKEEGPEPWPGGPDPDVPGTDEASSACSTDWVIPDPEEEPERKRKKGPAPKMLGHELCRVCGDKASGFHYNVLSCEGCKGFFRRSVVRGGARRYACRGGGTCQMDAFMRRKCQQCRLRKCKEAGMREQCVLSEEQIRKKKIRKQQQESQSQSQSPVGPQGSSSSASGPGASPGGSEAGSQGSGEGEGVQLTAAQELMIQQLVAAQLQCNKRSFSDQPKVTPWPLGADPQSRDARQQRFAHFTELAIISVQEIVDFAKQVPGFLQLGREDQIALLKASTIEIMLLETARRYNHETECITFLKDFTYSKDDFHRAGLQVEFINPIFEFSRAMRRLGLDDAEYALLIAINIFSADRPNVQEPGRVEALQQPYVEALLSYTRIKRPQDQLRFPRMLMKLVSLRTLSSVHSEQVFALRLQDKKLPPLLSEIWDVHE
It is filed as functional, cell-based.

Experiment [2] has as its target T1, Oxysterols receptor LXR-beta. The class given is functional, cell-based. This is another data set of the same source.
A short description of experiment [3]: cells.
Experiment [4] concerns the target T2, Heat shock factor protein 1 (Mus musculus, UniProt P38532).
T2 sequence (P38532 whole entry): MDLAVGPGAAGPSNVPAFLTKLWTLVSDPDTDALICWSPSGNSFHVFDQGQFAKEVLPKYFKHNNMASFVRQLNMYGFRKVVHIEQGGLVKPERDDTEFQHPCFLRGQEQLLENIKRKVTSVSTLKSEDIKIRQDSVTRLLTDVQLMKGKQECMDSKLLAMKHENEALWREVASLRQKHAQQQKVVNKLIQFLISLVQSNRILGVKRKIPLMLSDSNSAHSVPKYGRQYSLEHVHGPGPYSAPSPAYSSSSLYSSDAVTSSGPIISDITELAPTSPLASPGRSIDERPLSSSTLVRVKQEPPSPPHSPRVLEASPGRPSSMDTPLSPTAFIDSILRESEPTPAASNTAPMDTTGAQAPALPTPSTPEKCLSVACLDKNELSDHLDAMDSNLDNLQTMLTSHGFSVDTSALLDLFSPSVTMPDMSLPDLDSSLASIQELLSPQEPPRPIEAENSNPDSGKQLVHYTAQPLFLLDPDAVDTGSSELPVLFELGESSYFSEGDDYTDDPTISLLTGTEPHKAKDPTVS
Briefly: inhibition of MG132-induced HSE-luciferase signal, confirmation, cell-based, NIH3T3, luminescence, dose retest (AID 2382).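 Note: NIH3T3 fibroblasts with HSF1-driven luciferase reporter stressed by proteasome inhibitor MG132; luminescence from HSF1-driven luciferase expression after 8 hours of MG132 stress.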 It is filed as functional.

The target in experiment [5] is T3, COUP transcription factor 2 (Homo sapiens, UniProt P24468).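 Note: HEK293 cells transiently cotransfected with COUP-TFII expression vector and reporter; luciferase reporter luminescence driven by COUP-TFII from the pX2-168 reporter plasmid.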
T3 sequence (P24468 whole entry): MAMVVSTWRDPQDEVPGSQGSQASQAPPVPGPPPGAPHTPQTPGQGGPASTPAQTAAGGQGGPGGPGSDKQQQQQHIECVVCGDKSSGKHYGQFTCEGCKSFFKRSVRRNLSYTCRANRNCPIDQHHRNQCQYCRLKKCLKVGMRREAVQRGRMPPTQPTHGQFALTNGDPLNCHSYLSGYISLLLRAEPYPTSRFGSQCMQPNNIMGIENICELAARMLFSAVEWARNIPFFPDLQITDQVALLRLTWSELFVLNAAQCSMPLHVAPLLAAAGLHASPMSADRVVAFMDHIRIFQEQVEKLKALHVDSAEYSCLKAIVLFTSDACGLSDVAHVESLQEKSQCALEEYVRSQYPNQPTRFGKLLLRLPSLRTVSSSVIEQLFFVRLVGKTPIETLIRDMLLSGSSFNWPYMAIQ
Briefly: Luminescence-based cell-based high throughput dose response assay to identify inhibitors of COUP-TFII (NR2F2). The class given is functional.

In experiment [6] the target is T4, 1-phosphatidylinositol 4,5-bisphosphate phosphodiesterase gamma-1 (Homo sapiens, UniProt P19174).
T4 sequence (P19174 whole entry): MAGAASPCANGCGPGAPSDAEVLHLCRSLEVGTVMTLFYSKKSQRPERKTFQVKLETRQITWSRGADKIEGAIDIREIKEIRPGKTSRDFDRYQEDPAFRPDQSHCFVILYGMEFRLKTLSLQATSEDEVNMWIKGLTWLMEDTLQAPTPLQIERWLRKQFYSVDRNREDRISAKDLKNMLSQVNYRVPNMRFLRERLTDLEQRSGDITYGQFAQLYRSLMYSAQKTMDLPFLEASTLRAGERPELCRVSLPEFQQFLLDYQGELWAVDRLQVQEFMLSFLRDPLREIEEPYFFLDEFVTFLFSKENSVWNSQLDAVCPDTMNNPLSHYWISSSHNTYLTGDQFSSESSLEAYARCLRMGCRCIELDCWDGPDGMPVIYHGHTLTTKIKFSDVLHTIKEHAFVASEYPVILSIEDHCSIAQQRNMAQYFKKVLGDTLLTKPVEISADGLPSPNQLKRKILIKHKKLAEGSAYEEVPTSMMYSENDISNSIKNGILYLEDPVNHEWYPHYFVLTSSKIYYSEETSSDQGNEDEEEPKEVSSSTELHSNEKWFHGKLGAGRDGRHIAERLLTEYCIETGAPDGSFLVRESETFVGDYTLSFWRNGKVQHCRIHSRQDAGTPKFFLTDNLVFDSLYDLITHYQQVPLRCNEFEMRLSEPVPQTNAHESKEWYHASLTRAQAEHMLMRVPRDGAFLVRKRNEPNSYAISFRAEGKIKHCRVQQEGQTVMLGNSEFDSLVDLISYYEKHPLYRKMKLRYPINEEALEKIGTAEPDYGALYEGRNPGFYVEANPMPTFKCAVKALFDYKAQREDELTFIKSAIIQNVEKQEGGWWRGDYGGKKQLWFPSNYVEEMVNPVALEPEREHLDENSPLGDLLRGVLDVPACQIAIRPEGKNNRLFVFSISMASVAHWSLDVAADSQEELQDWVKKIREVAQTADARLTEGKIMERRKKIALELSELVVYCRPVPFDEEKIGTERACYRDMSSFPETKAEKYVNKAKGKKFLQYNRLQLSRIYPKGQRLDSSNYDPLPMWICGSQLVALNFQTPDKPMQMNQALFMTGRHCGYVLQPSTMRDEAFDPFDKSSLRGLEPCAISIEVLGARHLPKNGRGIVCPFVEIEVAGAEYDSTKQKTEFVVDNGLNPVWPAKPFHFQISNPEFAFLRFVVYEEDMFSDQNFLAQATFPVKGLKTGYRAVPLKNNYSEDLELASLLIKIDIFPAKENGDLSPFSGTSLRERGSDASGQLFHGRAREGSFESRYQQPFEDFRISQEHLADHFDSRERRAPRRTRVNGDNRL
Nature of the experiment: Counterscreen for inhibitors of phospholipase C isozymes (PLC-B3): Fluorescence-based biochemical high throughput dose response assay to identify inhibitors of phospholipase C isozymes (PLC-gamma1).

Experiment [7] addresses T5, 1-phosphatidylinositol 4,5-bisphosphate phosphodiesterase beta-3 (Homo sapiens, UniProt Q01970).
T5 sequence (Q01970 whole entry): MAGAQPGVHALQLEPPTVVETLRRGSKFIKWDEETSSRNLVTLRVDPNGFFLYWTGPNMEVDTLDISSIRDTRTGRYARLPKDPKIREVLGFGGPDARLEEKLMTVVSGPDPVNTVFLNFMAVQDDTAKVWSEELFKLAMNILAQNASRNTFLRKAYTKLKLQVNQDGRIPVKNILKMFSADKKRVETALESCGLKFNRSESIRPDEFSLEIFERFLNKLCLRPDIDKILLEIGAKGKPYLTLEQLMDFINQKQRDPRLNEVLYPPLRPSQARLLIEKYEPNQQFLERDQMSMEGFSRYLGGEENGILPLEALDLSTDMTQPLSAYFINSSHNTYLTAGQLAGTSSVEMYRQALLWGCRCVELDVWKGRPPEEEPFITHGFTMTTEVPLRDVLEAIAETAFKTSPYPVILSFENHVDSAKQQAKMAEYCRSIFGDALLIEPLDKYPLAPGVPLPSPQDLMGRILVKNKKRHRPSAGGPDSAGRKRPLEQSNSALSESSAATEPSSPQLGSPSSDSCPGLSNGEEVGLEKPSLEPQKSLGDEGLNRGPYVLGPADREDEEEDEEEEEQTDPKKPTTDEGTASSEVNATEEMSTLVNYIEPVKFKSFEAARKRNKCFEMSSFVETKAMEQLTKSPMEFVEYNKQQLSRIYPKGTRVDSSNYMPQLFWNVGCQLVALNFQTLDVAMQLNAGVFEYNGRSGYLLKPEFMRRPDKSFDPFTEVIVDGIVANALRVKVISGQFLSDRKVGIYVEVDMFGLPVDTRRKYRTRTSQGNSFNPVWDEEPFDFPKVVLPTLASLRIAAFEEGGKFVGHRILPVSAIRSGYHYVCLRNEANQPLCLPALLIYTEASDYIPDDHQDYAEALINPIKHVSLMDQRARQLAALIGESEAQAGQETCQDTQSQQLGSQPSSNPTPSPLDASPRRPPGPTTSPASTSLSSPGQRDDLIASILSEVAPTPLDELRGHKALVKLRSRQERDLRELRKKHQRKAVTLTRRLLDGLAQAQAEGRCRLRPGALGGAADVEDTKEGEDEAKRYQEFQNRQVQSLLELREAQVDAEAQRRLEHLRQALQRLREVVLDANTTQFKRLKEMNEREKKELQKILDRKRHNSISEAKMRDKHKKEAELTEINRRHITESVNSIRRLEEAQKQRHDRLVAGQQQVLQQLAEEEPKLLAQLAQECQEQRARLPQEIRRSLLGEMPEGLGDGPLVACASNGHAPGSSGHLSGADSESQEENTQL
Briefly: Fluorescence-based biochemical high throughput dose response assay to identify inhibitors of phospholipase C isozymes (PLC-B3).

The target in experiment [8] is T6, Cytochrome P450 1A2 (Homo sapiens, UniProt P05177).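 Note: PubChem cytochrome P450 panel assay, CYP1A2 panel member.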
T6 sequence (P05177 whole entry): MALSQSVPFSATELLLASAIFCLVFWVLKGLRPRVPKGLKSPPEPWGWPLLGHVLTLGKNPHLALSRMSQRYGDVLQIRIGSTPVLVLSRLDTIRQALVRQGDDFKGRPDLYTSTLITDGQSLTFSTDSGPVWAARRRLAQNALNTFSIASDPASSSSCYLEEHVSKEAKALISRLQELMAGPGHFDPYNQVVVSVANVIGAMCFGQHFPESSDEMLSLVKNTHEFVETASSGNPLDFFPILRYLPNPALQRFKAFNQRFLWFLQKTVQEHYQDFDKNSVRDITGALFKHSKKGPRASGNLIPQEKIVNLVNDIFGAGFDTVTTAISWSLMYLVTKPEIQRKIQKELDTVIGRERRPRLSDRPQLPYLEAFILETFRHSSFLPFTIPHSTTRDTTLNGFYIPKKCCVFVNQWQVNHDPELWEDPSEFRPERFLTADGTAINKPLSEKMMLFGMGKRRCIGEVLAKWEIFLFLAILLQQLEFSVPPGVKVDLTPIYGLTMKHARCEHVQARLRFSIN

Experiment [9] is described as follows: miR-122 activators in hepatoma reporter cells, dose response, cell-based, Huh7 psiCHECK-miR122, Renilla luciferase, cherry-picked (AID 651956).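 Note: huh7 hepatoma cells stably carrying a psiCHECK-2 miR-122 sensor plasmid; renilla luciferase signal reporting endogenous miR-122 activity after 48 h compound exposure.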 It is filed as functional.
The target of experiment [10] is Paired box protein Pax-8 (Homo sapiens, UniProt Q06710). Nature of the experiment: inhibitors of PAX8-driven TPO luciferase reporter, dose response, RMG-I cells, cherry-pick (AID 687027).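 Note: luciferase reporter driven by Pax8 target thyroperoxidase promoter measured by SteadyGlo luminescence.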 It is filed as functional, cell-based.
Experiment [11] is described as follows: NIH:OVCAR-3 ovarian cancer cell cytotoxicity, dose response, PAX8 inhibitor project, plate reader, dry powder samples (AID 743044). The class given is functional, cell-based.
The nature of experiment [12]: IGROV1 ovarian cancer cell cytotoxicity, dose response, PAX8 inhibitor project, plate reader, dry powder samples (AID 743043). It is filed as functional, cell-based. As to conditions: IGROV-1.
Experiment [13] in a line: HEK293T cytotoxicity, dose response, cytotoxicity control for miR-122 modulator project, cell-based, activator set, cherry-pick (AID 720690).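 Note: HEK293T human cells scored for general mammalian cytotoxicity.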 The class given is functional.
Experiment [14] can be described thus: non-specific cell cytotoxicity, dose response, cytotoxicity control for PAX8 inhibitor project, plate reader, dry powder samples (AID 743021). The class given is functional, cell-based.

The source made the active and inactive calls.

Paired box protein Pax-8, sequence (Q06710 whole entry): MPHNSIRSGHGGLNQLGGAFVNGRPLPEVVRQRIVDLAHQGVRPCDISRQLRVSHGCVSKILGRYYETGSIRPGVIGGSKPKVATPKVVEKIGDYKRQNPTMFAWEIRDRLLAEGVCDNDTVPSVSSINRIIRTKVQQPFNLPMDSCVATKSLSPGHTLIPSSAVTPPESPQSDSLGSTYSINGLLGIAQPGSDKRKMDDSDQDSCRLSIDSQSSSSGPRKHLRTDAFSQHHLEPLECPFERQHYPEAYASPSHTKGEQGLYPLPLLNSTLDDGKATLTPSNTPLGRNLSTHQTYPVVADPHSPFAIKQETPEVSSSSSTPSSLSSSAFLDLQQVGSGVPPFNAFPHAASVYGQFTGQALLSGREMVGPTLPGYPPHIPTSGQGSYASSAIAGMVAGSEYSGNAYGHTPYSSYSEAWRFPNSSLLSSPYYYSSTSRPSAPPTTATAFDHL

As to `Cc1nnc(SCC(=O)Nc2nsc(-c3ccc(C(C)(C)C)cc3)n2)s1`, the EC50 in [1] is > 67.5 µM (inactive).
For `O=c1c(=NNc2ccccc2Cl)c(=O)c2ccccc12`, the EC50 in [2] and in experiment [3] was > 67.5 µM (inactive) throughout.
In the case of `O=C1NC(=O)C(=NNc2ccc3c(c2)OCCO3)C(=O)N1`, the EC50 in experiment [4] was < 160 nM (active). The IC50 in experiment [5] is 6.75 µM (active).
For `CC(C)Oc1ccc(C(=O)Nc2ccc(NC(=O)c3ccco3)c(Cl)c2)cc1`, the IC50 in [6] and in experiment [7] was > 122 µM (inactive) each time. Moreover, in experiment [8], the AC50 is 22.4 µM (inconclusive).
Take `Cc1ccccc1-c1ccc([C@@H]2[C@H](CO)N3CCCCN(C(=O)Nc4cccc(F)c4)C[C@@H]23)cc1`: the AC50 in experiment [9] was 9.43 µM (active); in experiment [10], 19.6 µM (active); in [11] it was 20.4 µM (active); in [12] it was 35.5 µM (active); in experiment [13], 13.7 µM (active); in [14], 3.19 µM (active).
On to `CCNC(=O)Nc1ccc2c(c1)C(=O)N(C)[C@H]1CC[C@H](CC(=O)N[C@H](C)c3ccccc3)O[C@@H]1CO2`, for which the results for the IC50 in experiment [6] and in experiment [7] were 68.8 µM (inactive) and 61.9 µM (inactive), respectively.
